Results as given in ChEMBL document CHEMBL1201862, “PubChem BioAssay data set” (2004).
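Interpolation was linear, between the two tested concentrations surrounding the appropriate level; five concentrations were tested over 48 hours in 96-well plates. GI50 marks 50% less growth.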 Active and inactive are the calls of the source. Rule as the data show it: active = GI50 up to about 1.1 µM and inactive = higher.

What was measured:
Test in all cases: NCI anticancer screen, dose series, 48 h
[1] = tested on: 786-0
[2] = tested on: A498
[3] = tested on: A549
[4] = tested on: ACHN
[5] = tested on: CAKI-1
[6] = tested on: CCRF-CEM
[7] = tested on: COLO 205
[8] = tested on: DU-145
[9] = tested on: HCT-116
[10] = tested on: HCT-15
[11] = tested on: HL-60
[12] = tested on: HOP-62
[13] = tested on: HT-29
[14] = tested on: Hs-578T
[15] = tested on: IGROV-1
[16] = tested on: K562
[17] = tested on: KM12
[18] = tested on: LOX IMVI
[19] = tested on: M14
[20] = tested on: MCF7
[21] = tested on: MDA-MB-231
[22] = tested on: MDA-MB-435
[23] = tested on: MDA-N
[24] = tested on: MOLT-4
[25] = tested on: NCI-H226
[26] = tested on: NCI-H23
[27] = tested on: NCI-H460
[28] = tested on: NCI-H522
[29] = tested on: NCI/ADR-RES
[30] = tested on: OVCAR-3
[31] = tested on: OVCAR-5
[32] = tested on: OVCAR-8
[33] = tested on: PC-3
[34] = tested on: RPMI-8226
[35] = tested on: RXF 393
[36] = tested on: SF-268
[37] = tested on: SF-295
[38] = tested on: SF-539
[39] = tested on: SK-MEL-2
[40] = tested on: SK-MEL-5
[41] = tested on: SK-OV-3
[42] = tested on: SN12C
[43] = tested on: SNB-19
[44] = tested on: SR
[45] = tested on: SW-620
[46] = tested on: T47D
[47] = tested on: TK-10
[48] = tested on: U-251
[49] = tested on: UACC-257
[50] = tested on: UACC-62
[51] = tested on: UO-31
[52] = tested on: EKVX
[53] = tested on: HCC 2998
[54] = tested on: HOP-92
[55] = tested on: Malme-3M
[56] = tested on: OVCAR-4
[57] = tested on: SK-MEL-28
[58] = tested on: SNB-75

Measured: GI50

C1=C(c2ccccc2)Nc2nnnn2C1c1ccccc1 (stereo not drawn)
active: [6] 0.0125 µM | [34] < 0.01 µM
15.3 µM: [10]
inactive: [1] 47.2 µM | [2] 37.2 µM | [3] 44.5 µM | [4] 23.6 µM | [5] 47.6 µM | [7] 48.6 µM | [8] 26.9 µM | [9] 9.93 µM | [11] 21.9 µM | [12] 38.5 µM | [13] 17.4 µM | [14] 37.5 µM | [15] 83.4 µM | [16] 21.4 µM | [17] 13.5 µM | [18] 17.3 µM | [19] 23.9 µM | [20] 7.66 µM | [21] > 100 µM | [22] 11.1 µM | [23] 20.1 µM | [24] 22 µM | [25] 47.4 µM | [26] > 100 µM | [27] 34 µM | [28] 23.1 µM | [29] 44 µM | [30] > 100 µM | [31] 93.3 µM | [32] 34.9 µM | [33] 53.2 µM | [35] 16.7 µM | [36] 32.7 µM | [37] 28.6 µM | [38] 25.1 µM | [39] 27.5 µM | [40] 40.7 µM | [41] 58.1 µM | [42] 71.3 µM | [43] 49.4 µM | [44] 12.1 µM | [45] 22.1 µM | [46] 47.1 µM | [47] 28.6 µM | [48] 18.6 µM | [49] 48.1 µM | [50] 46.2 µM | [51] > 100 µM

CC1(C)O[C@@H](CO)[C@H]([C@@]23OC[C@H]4OC(C)(C)OC4[C@@H]2OC(C)(C)O3)O1 (stereo partly drawn)
inactive: [1] > 100 µM | [3] > 100 µM | [4] > 100 µM | [7] > 100 µM | [8] > 100 µM | [52] > 100 µM | [53] > 100 µM | [9] > 100 µM | [11] > 100 µM | [12] > 100 µM | [54] > 100 µM | [13] > 100 µM | [14] > 100 µM | [15] > 100 µM | [16] > 100 µM | [17] > 100 µM | [18] > 100 µM | [19] > 100 µM | [20] > 100 µM | [21] > 100 µM | [22] > 100 µM | [23] > 100 µM | [24] > 100 µM | [55] > 100 µM | [25] > 100 µM | [26] > 100 µM | [27] > 100 µM | [28] > 100 µM | [29] > 100 µM | [30] > 100 µM | [56] > 100 µM | [31] > 100 µM | [32] > 100 µM | [33] > 100 µM | [34] > 100 µM | [35] > 100 µM | [36] > 100 µM | [37] > 100 µM | [57] > 100 µM | [39] > 100 µM | [40] 20.3 µM | [41] > 100 µM | [42] > 100 µM | [43] > 100 µM | [58] > 100 µM | [44] > 100 µM | [45] > 100 µM | [46] > 100 µM | [48] > 100 µM | [51] > 100 µM
> 100 µM: [10]

Cc1nc2ccc(Br)cc2c(=O)n1-c1nnc(C(C)(C)C)s1
inactive: [1] > 10 µM | [3] > 10 µM | [4] > 10 µM | [5] > 10 µM | [6] > 10 µM | [7] > 10 µM | [8] > 10 µM | [52] > 10 µM | [53] > 10 µM | [9] > 10 µM | [11] > 10 µM | [12] > 10 µM | [54] > 10 µM | [13] > 10 µM | [14] 7.46 µM | [15] > 10 µM | [16] > 10 µM | [17] > 10 µM | [18] > 10 µM | [19] > 10 µM | [20] > 10 µM | [21] > 10 µM | [22] > 10 µM | [23] > 10 µM | [24] > 10 µM | [25] > 10 µM | [26] > 10 µM | [27] > 10 µM | [28] > 10 µM | [29] > 10 µM | [30] > 10 µM | [56] > 10 µM | [31] > 10 µM | [32] > 10 µM | [33] > 10 µM | [34] > 10 µM | [35] > 10 µM | [36] > 10 µM | [37] > 10 µM | [38] > 10 µM | [57] > 10 µM | [39] > 10 µM | [40] > 10 µM | [41] > 10 µM | [42] > 10 µM | [43] > 10 µM | [58] > 10 µM | [44] > 10 µM | [45] > 10 µM | [46] > 10 µM | [47] > 10 µM | [48] > 10 µM | [49] > 10 µM | [50] > 10 µM | [51] 2 µM
> 10 µM: [10]
